Several values for one entry are separate records, joined by “and”; a condition that tells them apart may be missing. Equal entries are not always repeated. Inconclusive results and toxic doses are left out. The calls were made as follows: active = survival T/C of 150% or more; inactive = T/C below 125% in these data.
System: P388 leukemia ip, CD2F1 mice, survival T/C
Assay: NCI In Vivo Anticancer Drug Screen. Data for tumor model P388 Leukemia (intraperitoneal) in CD2F1 (CDF1) mice
Details: endpoint: median survival time, higher = longer survival
In short: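 Mice carrying the transplanted tumor received test compound or vehicle. Survival was recorded in each group, and the value is the treated-group measurement divided by that of the vehicle-treated control group.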

[1] = dose: 50.0 mg/kg/injection, schedule: Q01DX009 (ip), vehicle: saline
[2] = dose: 100.0 mg/kg/injection, schedule: Q01DX009 (ip), vehicle: saline
[3] = dose: 50.0 mg/kg/injection, schedule: Q01DX009 (ip), vehicle: saline with Tween-80
[4] = dose: 100.0 mg/kg/injection, schedule: Q04DX002 (ip), vehicle: saline with Tween-80
[5] = dose: 200.0 mg/kg/injection, schedule: Q04DX002 (ip), vehicle: saline with Tween-80
[6] = dose: 400.0 mg/kg/injection, schedule: Q04DX002 (ip), vehicle: saline with Tween-80
[7] = dose: 50.0 mg/kg/injection, schedule: Q01DX005 (ip), vehicle: saline with Tween-80
[8] = dose: 100.0 mg/kg/injection, schedule: Q01DX005 (ip), vehicle: saline with Tween-80
[9] = dose: 100.0 mg/kg/injection, schedule: Q01DX001 (ip), vehicle: saline with Tween-80
[10] = dose: 200.0 mg/kg/injection, schedule: Q01DX001 (ip), vehicle: saline with Tween-80
[11] = dose: 400.0 mg/kg/injection, schedule: Q01DX001 (ip), vehicle: saline with Tween-80
[12] = dose: 100.0 mg/kg/injection, schedule: Q01DX009 (ip), vehicle: saline with Tween-80
[13] = dose: 200.0 mg/kg/injection, schedule: Q01DX009 (ip), vehicle: saline with Tween-80
[14] = dose: 400.0 mg/kg/injection, schedule: Q01DX009 (ip), vehicle: saline with Tween-80
[15] = dose: 100.0 mg/kg/injection, schedule: Q01DX001 (ip), vehicle: saline
[16] = dose: 200.0 mg/kg/injection, schedule: Q01DX001 (ip), vehicle: saline
[17] = dose: 400.0 mg/kg/injection, schedule: Q01DX001 (ip), vehicle: saline
[18] = dose: 50.0 mg/kg/injection, schedule: Q01DX005 (ip), vehicle: Klucel (hydroxypropylcellulose) (HPC)
[19] = dose: 100.0 mg/kg/injection, schedule: Q01DX005 (ip), vehicle: Klucel (hydroxypropylcellulose) (HPC)
[20] = dose: 200.0 mg/kg/injection, schedule: Q01DX005 (ip), vehicle: Klucel (hydroxypropylcellulose) (HPC)
[21] = dose: 60.0 mg/kg/injection, schedule: Q01DX005 (ip), vehicle: Klucel (hydroxypropylcellulose) (HPC)
[22] = dose: 120.0 mg/kg/injection, schedule: Q01DX005 (ip), vehicle: Klucel (hydroxypropylcellulose) (HPC)

Measured: T/C

COC(=O)C(C)NP(=O)(N1CC1)N1CC1 (configuration not stated)
active: dose: 7.5 mg/kg/injection, schedule: Q01DX005 (ip), vehicle: saline 176 % of control | dose: 15.0 mg/kg/injection, schedule: Q01DX005 (ip), vehicle: saline with Tween-80 257 % of control | dose: 15.0 mg/kg/injection, schedule: Q01DX005 (ip), vehicle: saline 226 % of control
inactive: dose: 1.87 mg/kg/injection, schedule: Q01DX005 (ip), vehicle: saline 119 % of control

COc1ccc(C2CC(=O)C(C)C(c3ccc(OC)cc3)N2)cc1 (configuration not stated)
inactive: [1] 100 % of control | [2] 104 % of control | dose: 200.0 mg/kg/injection, schedule: Q01DX009 (ip), vehicle: saline 100 % of control

Cn1ncc2c(N)ncnc21
inactive: [3] 118 % of control | dose: 100.0 mg/kg/injection, schedule: Q04DX003 (ip), vehicle: saline with Tween-80 109 % of control | dose: 200.0 mg/kg/injection, schedule: Q04DX003 (ip), vehicle: saline with Tween-80 123 % of control

O=C1CSC(c2ccco2)N1CCN1C(=O)CSC1c1ccco1 (configuration not stated)
inactive: [4] 100 % of control | [5] 98 % of control | [6] 91 % of control

O=c1c2ccccc2sc2cccc(NCCCN3CCN(CCCNc4cccc5sc6ccccc6c(=O)c45)CC3)c12
inactive: dose: 0.5 mg/kg/injection, schedule: Q01DX005 (ip), vehicle: saline with Tween-80 100 % of control | dose: 1.0 mg/kg/injection, schedule: Q01DX005 (ip), vehicle: saline with Tween-80 99 % of control | dose: 2.0 mg/kg/injection, schedule: Q01DX005 (ip), vehicle: saline with Tween-80 99 % of control | dose: 4.0 mg/kg/injection, schedule: Q01DX005 (ip), vehicle: saline with Tween-80 95 % of control | dose: 8.0 mg/kg/injection, schedule: Q01DX005 (ip), vehicle: saline with Tween-80 88 % of control

Cc1ccc(C)n1-n1nnnc1N
inactive: [7] 101 % of control | [8] 100 % of control

NC1=NC(c2ccccc2Cl)CC(c2cc3ccccc3o2)=N1 (configuration not stated)
inactive: [9] 92 % of control | [10] 89 % of control | [11] 100 % of control

COc1cc(OC)c(OC)cc1/C=C/c1ccc2ccccc2n1
inactive: [12] 110 % of control | [13] 110 % of control | [14] 110 % of control

CCOC(=O)C1C2(C(C)=O)C(C)=Nc3c(C#N)cnn3C12C(=O)OCC (configuration not stated)
inactive: dose: 6.25 mg/kg/injection, schedule: Q01DX005 (ip), vehicle: saline with Tween-80 105 % of control | dose: 12.5 mg/kg/injection, schedule: Q01DX005 (ip), vehicle: saline with Tween-80 100 % of control | dose: 25.0 mg/kg/injection, schedule: Q01DX005 (ip), vehicle: saline with Tween-80 104 % of control | [8] 92 % of control | dose: 200.0 mg/kg/injection, schedule: Q01DX005 (ip), vehicle: saline with Tween-80 91 % of control

COc1cc(Cc2ccc3c(c2)OCO3)cc(OC)c1OC
inactive: [15] 102 % of control | [16] 102 % of control | [17] 99 % of control

NC(=S)N/N=C/c1c(-c2ccc(-c3ccccc3)cc2)nc2n1CCS2
inactive: dose: 100.0 mg/kg/injection, schedule: Q04DX002 (ip), vehicle: Klucel (hydroxypropylcellulose) (HPC) 98 % of control | dose: 200.0 mg/kg/injection, schedule: Q04DX002 (ip), vehicle: Klucel (hydroxypropylcellulose) (HPC) 104 % of control | dose: 400.0 mg/kg/injection, schedule: Q04DX002 (ip), vehicle: Klucel (hydroxypropylcellulose) (HPC) 99 % of control

CC1NC(=O)NC(=O)C1=S (configuration not stated)
inactive: [18] 112 % of control | [19] 111 % of control | [20] 113 % of control

COc1ccc(Cl)cc1C(c1cc(Cl)ccc1OC)C(Cl)(Cl)Cl
inactive: [12] 100 % of control | [13] 100 % of control | [14] 90 % of control

COc1ccc(N=C2C(=Nc3ccc(OC)cc3)N(c3ccc(OC)cc3)C(=S)N2C(=O)c2ccc(Cl)cc2)cc1
inactive: dose: 50.0 mg/kg/injection, schedule: Q01DX005 (ip), vehicle: Klucel + Tween-80 90 % of control | dose: 100.0 mg/kg/injection, schedule: Q01DX005 (ip), vehicle: Klucel + Tween-80 93 % of control | dose: 200.0 mg/kg/injection, schedule: Q01DX005 (ip), vehicle: Klucel + Tween-80 90 % of control

O=[N+]([O-])c1cc2c(ccc3ccccc32)o1
inactive: [18] 102 % of control | [19] 103 % of control | [20] 117 % of control

CC1(C)OC(=O)N=C1c1ccc(Cl)cc1
inactive: [21] 107 % of control | [22] 101 % of control

CCOC(=O)c1[nH]c2c(cc(C=O)c3ccccc32)c1C
inactive: [9] 92 % of control | [10] 91 % of control | [11] 90 % of control

COC(=O)c1cc2cc(OC)c(OC)cc2c2ccccc12
inactive: [7] 90 % of control | [8] 90 % of control

Cc1ccccc1N1C(=O)CC2(CCCC2)C1=O
inactive: [3] 97 % of control | [12] 113 % of control | [13] 94 % of control

CCP(C)(=O)c1ccccc1 (configuration not stated)
inactive: [4] 96 % of control | [5] 97 % of control | [6] 100 % of control

O=C(Nc1cccc([N+](=O)[O-])c1)OCC#CCCl
inactive: dose: 50.0 mg/kg/injection, schedule: Q01DX005 (ip), vehicle: saline + Tween-80 + alcohol 102 % of control | dose: 100.0 mg/kg/injection, schedule: Q01DX005 (ip), vehicle: saline + Tween-80 + alcohol 101 % of control | dose: 200.0 mg/kg/injection, schedule: Q01DX005 (ip), vehicle: saline + Tween-80 + alcohol 100 % of control

Nc1cccc(S(=O)(=O)Nc2c(N)[nH]c(=S)[nH]c2=O)c1
inactive: dose: 30.0 mg/kg/injection, schedule: Q01DX005 (ip), vehicle: Klucel (hydroxypropylcellulose) (HPC) 101 % of control and 94 % of control | [21] 99 % of control and 100 % of control and 97 % of control | [22] 96 % of control and 97 % of control

CC1OC(OCC2OC(Oc3c(-c4ccc(O)cc4)oc4cc(OC5OC(C)C(O)C(O)C5O)cc(O)c4c3=O)C(O)C(O)C2O)C(O)C(O)C1O (configuration not stated)
inactive: [12] 95 % of control | dose: 100.0 mg/kg/injection, schedule: Q04DX003 (ip), vehicle: saline sonified 90 % of control | [13] 95 % of control | dose: 200.0 mg/kg/injection, schedule: Q04DX003 (ip), vehicle: saline sonified 90 % of control | [14] 95 % of control | dose: 400.0 mg/kg/injection, schedule: Q04DX003 (ip), vehicle: saline sonified 90 % of control

CN(C)CCN(C)CCc1ccccn1
inactive: [15] 109 % of control | [16] 102 % of control | [17] 105 % of control

COc1ccc(C(=O)CCN(C)C)cc1
inactive: [1] 104 % of control | [2] 104 % of control

CCn1c(=O)[nH]c(=O)c2[nH]c(Cl)nc21
inactive: dose: 16.0 mg/kg/injection, schedule: Q01DX009 (ip), vehicle: Klucel (hydroxypropylcellulose) (HPC) 103 % of control | dose: 25.0 mg/kg/injection, schedule: Q01DX009 (ip), vehicle: Klucel (hydroxypropylcellulose) (HPC) 105 % of control | dose: 32.0 mg/kg/injection, schedule: Q01DX009 (ip), vehicle: Klucel (hydroxypropylcellulose) (HPC) 107 % of control | dose: 50.0 mg/kg/injection, schedule: Q01DX009 (ip), vehicle: Klucel (hydroxypropylcellulose) (HPC) 91 % of control | dose: 64.0 mg/kg/injection, schedule: Q01DX009 (ip), vehicle: Klucel (hydroxypropylcellulose) (HPC) 102 % of control | dose: 100.0 mg/kg/injection, schedule: Q01DX009 (ip), vehicle: Klucel (hydroxypropylcellulose) (HPC) 93 % of control

COC(=O)/C(=C1/OC(=O)C(c2ccc(OC(C)=O)cc2)=C1O)c1ccc(Cl)cc1
inactive: dose: 50.0 mg/kg/injection, schedule: Q01DX009 (ip), vehicle: saline + Tween-80 + alcohol 111 % of control | dose: 100.0 mg/kg/injection, schedule: Q01DX009 (ip), vehicle: saline + Tween-80 + alcohol 115 % of control

Source: PubChem BioAssay AID330 (DTP/NCI, 2004)
